The numbers were not newly measured in EP0811056B1, “PEPTIDES FOR TISSUE AND CELL CULTURE MEDIA” (QUEST INTERNATIONAL B.V., priority 1995, dated 1996), which cites them from elsewhere.

The conditions of this data set: on a glutamine basis.

For Glycyl-L-glutamine, the “amount of the dipeptide needed compared with free glutamine to obtain the same result” value is recorded as “up to 6 times”.
